Test results as given in patent US10053502B2, “Selective inhibitors of c-Fos and their antiproliferative properties” (INSERM (INSTITUT NATIONAL DE LA SANTÉ ET DE LA RECHERCHE …, priority 2014, dated 2018).
Where two headings read alike, the source gives them in different places. Residues, ends and D or L forms follow the SMILES beside them.

What was measured:
[1] = system: sNF96.2 (MPNST cell line); assay type: cell-based, human; details: MTT, 96 hours; for anti-proliferative properties on MPNST (words): 2 to 100 μM
Procedure: The inventors have further tested 4 different peptides in the Peripheral Nerve Sheath Tumors (MPNST) cell lines sNF96.2, which was deposited to the ATCC under the reference ATCC® CRL-2884™.
Cells were cultured at DayO in a complete medium (DMEM with 10% of fetal bovine serum). Then they were deprived at Day2 (24 hours in a medium comprising DMEM with 0.1% fetal bovine serum followed by 24 hours in DMEM alone).
At Day 4, the cells were incubated with a dose escalation regimen of pepsignal peptides from 2 to 100 μM.
The proliferation tests were carried out 96 hours later.
Proliferation was analysed by a MTT assay. The MTT assay is a colorimetric assay for assessing cell viability. The viability is measured by the metabolic activity if the cells, which is determined by the activity of a mitochondrial succinate dehydrogenate. Typically, the cell media goes from yellow to blue and the intensity of the coloration is proportional to the number of viable cells. Coloration is determined by […] at 570 nm.
The inventors performed three independent experiments, each point being performed in duplicate for each experiment.

NIH3T3 cells = assay: Serum-induced proliferation of NIH3T3 fibroblasts, BrdU incorporation; assay type: cell-based, mouse; details: 10% serum; BrdU 3 h; peptide 1 to 12 μM, U0126 10 μM
Procedure: On day one, 10 000 cells per well were grown in the presence of 10% serum.
NIH 3T3 mouse embryonic fibroblast cells were grown in DMEM supplemented with 10% (v/v) heat-inactivated FBS, 100 U/ml penicillin, and 100 μg/ml streptomycin.
(§1) 10 000 cells per well were grown in the presence of complete medium. After one cycle of cell division (around 32 hours for HCAEC and vSMC, 24 hours for NIH3T3), the cells were starved for one other cycle (0.1% serum or nutriment supplement for HCAEC). […] Proliferation was analyzed after BrdU incorporation, which allows the visualization of cells under division. For HCAEC and vSMC, BrdU was added with inhibitor. For NIH3T3, it was added only during the last three hours. Cells were fixed in 4% paraformaldehyde.
(§2) Only the nuclei with an intact nucleus were taken into account. Image-Pro Plus software (Media Cybernetics) was used in order to quantify BrdU positive cells. The percentage of positive cells was reported to the total number of Hoechst-positive cells.

vSMC = assay: Wound healing assay (invasiveness) in vSMC; assay type: cell-based, human; details: 24 to 72 hours, U0126 10 μM, Paclitaxel 10 nM, 10% serum
Procedure: The peptide was applied once, at the same time as 10% serum. The invasiveness was calculated as the percentage of cells over the size of the lesion, 24, 48 and 72 hours post-lesion.
Cells were cultured in 24-well plates as a confluent monolayer (30000 cells plated per well). […] Cells were fixed in 4% paraformaldehyde then stained with cresyl violet dye (1% in methanol). Pictures were taken to visualize the marked wound location. The wound healing effect was measured using the NIH ImageJ program and expressed as percentage of recovery of the lesion.
Invasive properties were studied using the wound healing protocol.
The percentage of lesion recovery was measured after cresyl violet staining of vSMC cells (FIG. 8).

[2] = system: human coronary arterial endothelial cells (HCAEC); assay: Serum-induced proliferation of HCAEC, BrdU incorporation; assay type: cell-based; details: 10% serum, peptide 3-12 μM, U0126 10 μM, Paclitaxel 10 nM, VIVIT 100 μM
Procedure: Using the same protocol than in FIG. 3, cells were grown in the presence of 10% serum after withdrawal. The peptide TAT-DEF-c-Fos was applied at a single dose one day after withdrawal. Proliferation was tested using a BrdU assay; n=3; One-way ANOVA; Dunett post hoc test; * p<0.05; when compared to the group treated with 10% serum
Primary human coronary arterial endothelial cells (HCAEC) (Promocell C12222) were grown in Endothelial Cell Growth Medium MV2 (Promocell).
as §1, §2

[3] = system: malignant peripheral nerve sheat tumors (MPNST) from NF1 patients; assay: Proliferation of MPNST cell lines from NF1 patients; assay type: cell-based; details: Homo sapiens, read-out: IC50, inhibition of proliferation of MPNST, 15% serum, control
Procedure: Human cell lines from malignant peripheral nerve sheat tumors (MPNST) were treated with either TAT-DEF-c-Fos at increasing doses, or as a control, with Rapamycin, an inhibitor of the mTOR pathway that is classically used as an inhibitor of proliferation on this cell line. The TAT-DEF-c-Fos peptide inhibited proliferation of MPNST at very low doses when compared to Rapamycin (IC50 for TAT-DEF-c-Fos around 10 μM instead of 10 mM for Rapamycin).
Malignant Peripheral Nerve Sheath Tumors (MPNST: from NF1 patients) were obtained from Michel Videaud's laboratory. 2000 cells were grown in the presence of 15% serum after withdrawal.
The inventors tested the efficacy of TAT-DEF-c-Fos on malignant NF1 cell proliferation (FIG. 9). For this purpose, the inventors used Human cell lines from malignant peripheral nerve sheat tumors (MPNST) from NF1 patients.
The MPNST cell lines were derived from a recurrent mass associated with peripheral nerve sheat and diagnosed as MPNST (Malignant Peripheral Nerve Sheath Tumor) in patients meeting NF1 diagnostic criteria.

[4] = system: vascular smooth muscle cells (vSMC); assay: Serum-induced proliferation of vSMC, BrdU incorporation; assay type: cell-based, human; details: 3, 6 and 12 μM, 10% serum
Procedure: On day one, 10 000 cells per well were grown in the presence of 10% serum. […] On the bases of our previous results in neuronal cells (see Lavaur et al., 2007) three different doses of pepsignal were tested: from 3 to 12 μM.
Using the same protocol as in FIG. 3, cells were grown in the presence of 10% FBS (serum) after withdrawal. The peptide TAT-DEF-c-Fos was applied once (6 or 12 μM) on day one (first day after withdrawal) and proliferation was tested using a BrdU assay 24, 48 or 72 hours later. When indicated, multiple applications of the peptide were done (“m”) every 24 hours. Note that the TAT-DEF-c-Fos12 μM is not reported herein; n=3; Two-way ANOVA; Bonferroni post hoc test; *** p<0.001 when compared to the group treated with 10% serum.
Primary vascular smooth muscle cells (vSMC) (ATCC CRL-1999) were grown in DMEM F12K medium supplemented 0.05 mg/ml ascorbic acid; 0.01 mg/ml insulin; 0.01 mg/ml transferrin; 10 ng/ml sodium selenite; 10% (v/v) heat-inactivated FBS (Fetal Bovine Serum), 100 U/ml penicillin, and 100 μg/ml streptomycin, 10 mM HEPES.
10 000 cells per well were grown in the presence of complete medium. […] Proliferation was analyzed after BrdU incorporation, which allows the visualization of cells under division. […]
Only the nuclei with an intact nucleus were taken into account. Image-Pro Plus software (Media Cybernetics) was used in order to quantify BrdU positive cells. […]

Row | Compound | anti-proliferative properties on MPNST (words) [1] | inhibition of NIH3T3 fibroblast proliferation (NIH3T3 cells) | effect on vSMC invasiveness (wound healing) (vSMC) | inhibition of HCAEC cell proliferation [2] | also measured
1 | CC[C@H](C)[C@H](NC(=O)[C@H](CCCCN)NC(=O)[C@@H](NC(=O)[C@H](CCC(N)=O)NC(=O)[C@@H](N)CCCNC(=N)N)[C@@H](C)CC)C(=O)N[C@@H](Cc1c[nH]c2ccccc12)C(=O)N[C@@H](Cc1ccccc1)C(=O)N[C@@H](Cc1c[nH]c2ccccc12)C(=O)N[C@@H](CC(N)=O)C(=O)N[C@@H](CCCNC(=N)N)C(=O)N[C@@H](CCCNC(=N)N)C(=O)N[C@@H](CCSC)C(=O)N[C@@H](CCCCN)C(=O)N[C@@H](Cc1c[nH]c2ccccc12)C(=O)N[C@@H](CCCCN)C(=O)N[C@@H](CCCCN)C(=O)N1CCC[C@H]1C(=O)N1CCC[C@H]1C(=O)N[C@@H](CS)C(=O)N[C@H](C(=O)N[C@H](C(=O)N[C@@H](Cc1ccc(O)cc1)C(=O)N[C@H](C(=O)N[C@@H](CO)C(=O)N[C@@H](CO)C(=O)N[C@@H](Cc1ccccc1)C(=O)N[C@H](C(=O)N[C@@H](Cc1ccccc1)C(=O)N[C@H](C(=O)N[C@@H](Cc1ccc(O)cc1)C(=O)N1CCC[C@H]1C(=O)N[C@@H](CCC(=O)O)C(=O)N[C@@H](C)C(=O)N[C@@H](CC(=O)O)C(=O)N[C@@H](CO)C(=O)N[C@@H](Cc1ccccc1)C(=O)N1CCC[C@H]1C(=O)N[C@@H](CO)C(=O)O)[C@@H](C)O)C(C)C)[C@@H](C)O)[C@@H](C)O)[C@@H](C)O [Penetratin-DEF-c-Fos] (H-RQIKIWFWNRRMKWKKPPCTTYTSSFVFTYPEADSFPS-OH; N-terminus and C-terminus assumed) | lower efficacy than the TAT-DEF-c-Fos peptide |  |  |  | inhibition of proliferation of sNF96.2 ([1]; 100 μM): ~66%
2 | N#CC(=C(/N)Sc1ccccc1N)/C(C#N)=C(\N)Sc1ccccc1N [Peptide U0126, U0126] |  | failed to inhibit proliferation | lack of effect | efficient | effect on vSMC invasiveness (wound healing) (vSMC; listed as classical MEK inhibitor): failed to block invasiveness
3 | TAT-DEF-JunB: SEQ ID NO: 37 GRKKRRQRRRPPTTPTPPGQYFYPRGGGSGGGAG (pepsignal) | lower efficacy than the TAT-DEF-c-Fos peptide |  |  |  | 
4 | CO[C@H]1C[C@@H]2CC[C@@H](C)[C@@](O)(O2)C(=O)C(=O)N2CCCC[C@H]2C(=O)O[C@H]([C@H](C)C[C@@H]2CC[C@@H](O)[C@H](OC)C2)CC(=O)[C@H](C)/C=C(\C)[C@@H](O)[C@@H](OC)C(=O)[C@H](C)C[C@H](C)/C=C/C=C/C=C/1C [Rapamycin] |  |  |  |  | IC50 [3]: ~10 mM
5 | CC[C@H](C)[C@H](NC(=O)[C@H](Cc1c[nH]cn1)NC(=O)[C@@H](NC(=O)[C@H](CCC(N)=O)NC(=O)[C@H](C)NC(=O)[C@H](CO)NC(=O)CNC(=O)[C@H](CO)NC(=O)[C@H](CO)NC(=O)[C@@H]1CCCN1C(=O)[C@H](Cc1ccccc1)NC(=O)[C@H](CCC(N)=O)NC(=O)[C@H](Cc1ccccc1)NC(=O)[C@H](CO)NC(=O)[C@H](CC(C)C)NC(=O)[C@H](CCCCN)NC(=O)[C@H](C)NC(=O)[C@@H]1CCCN1C(=O)[C@H](CO)NC(=O)[C@@H]1CCCN1C(=O)[C@@H]1CCCN1C(=O)[C@H](CCCNC(=N)N)NC(=O)[C@H](CCCNC(=N)N)NC(=O)[C@H](CCCNC(=N)N)NC(=O)[C@H](CCC(N)=O)NC(=O)[C@H](CCCNC(=N)N)NC(=O)[C@H](CCCNC(=N)N)NC(=O)[C@H](CCCCN)NC(=O)[C@H](CCCCN)NC(=O)[C@H](CCCNC(=N)N)NC(=O)CN)C(C)C)C(=O)O [TAT-DEF-Elk-1] (H-GRKKRRQRRRPPSPAKLSFQFPSSGSAQVHI-OH; N-terminus and C-terminus assumed) | slight inhibitory effect | no effect |  | no effect | anti-proliferative properties on MPNST (words) ([1]; listed as TAT-DEF-Elk1): low anti-proliferative properties; inhibition of proliferation of sNF96.2, maximum reached ([1]; even at higher doses (up to 100 μM)): < 50%; anti-proliferative properties on vSMC (serum-induced proliferation) [4]: not and no effect
6 | CC(=O)O[C@H]1C(=O)[C@@]2(C)[C@H]([C@H](OC(=O)c3ccccc3)[C@]3(O)C[C@H](OC(=O)[C@H](O)[C@@H](NC(=O)c4ccccc4)c4ccccc4)C(C)=C1C3(C)C)[C@]1(OC(C)=O)CO[C@@H]1C[C@@H]2O [Paclitaxel] |  |  | significant but transient effect | efficient | 
